Reference: patent US10537609B2, “MUC1 decoy peptides for treatment and prevention of bacterial infections” (priority 2014, dated 2020)

Assays:
[1] = tested on: P. aeruginosa (Pa) adhesion to A549 cells; assay: Bacterial adhesion assay: Pa preincubated with test material, then adhesion to A549 cell monolayers; conditions: for blocking of Pa adhesion to ECs by free monosaccharides: Pa preincubated 30 min with 5, 10 or 25 mM, separately or in combination (FIG. 10); for reduction of Pa adhesion: Pa preincubated 30 min with shed MUC1-ED preparation, adhesion to fresh A549 monolayers, compared with respective controls (FIG. 11)
[2] = tested on: MUC1-NEU1 association; conditions: A549 cells preincubated 30 min with 5.0 μM, then 10 ng/ml Pa flagellin 30 min
[3] = tested on: Pa lung infection; assay: Mouse model of Pa lung infection, Pa CFU in BALF and lungs; conditions: Pa preincubated with MUC1-ED; 10^5 CFU/mouse i.t.; 48 h and 72 h post-challenge; vs PBS control
[4] = tested on: Pseudomonas aeruginosa lung infection; assay: Mouse survival following Pseudomonas aeruginosa lung infection; format: in vivo, BALB/c mice; conditions: Pa intranasally at LD90 (2.0×10^7 CFU/mouse); MUC1-ED 2.5 μg/mouse, cefepime 1.0 μg/mouse; n=7/group
Experimental: FIG. 14. Effect of E. coli MUC1-ED With or Without Cefepime on Mouse Survival Following Pseudomonas aeruginosa Lung Infection. Pseudomonas aeruginosa was administered intranasally to BALB/c mice at an LD90 (2.0×10^7 CFU/mouse) with PBS control or E. coli-expressed MUC1-ED (2.5 μg/mouse). Simultaneously, PBS or cefepime (1.0 μg/mouse) was administered intraperitoneally, and mouse survival was measured daily (n=7/group).
P. aeruginosa was administered intranasally to groups of seven BALB/c mice at an LD90 (2.0×10^7 CFU/mouse). The control group (group #1) received PBS intraperitoneally as therapy; group #2 received MUC1-ED (2.5 μg/mouse) intraperitoneally; group #3 received cefepime (1.0 μg/mouse) intraperitoneally; group #4 received MUC1-ED (2.5 μg/mouse) and cefepime (1.0 μg/mouse) simultaneously, intraperitoneally. The MUC1-ED was E. coli-expressed deglycosylated peptide having the amino acid sequence set forth in SEQ ID NO:2.

Row | Compound | blocking of Pa adhesion to ECs by free monosaccharides [1] | reduction of Pa adhesion [1] | also measured
1 | CC(=O)N[C@H]1C(O)O[C@H](CO)[C@H](O)[C@@H]1O (some centres unmarked) [N-acetylgalactosamine, reference compound] | None of these monosaccharides, either separately or in combination, blocked Pa adhesion to ECs |  | 
2 | N#CC(=C(/N)Sc1ccccc1N)/C(C#N)=C(\N)Sc1ccccc1N [U0126] |  |  | effect on MUC1-NEU1 co-immunoprecipitation [2]: failed to alter MUC1-NEU1 co-immunoprecipitation
3 | O=C[C@H](O)[C@@H](O)[C@@H](O)[C@H](O)CO [galactose, reference compound] | None of these monosaccharides, either separately or in combination, blocked Pa adhesion to ECs |  | 
4 | desialylated MUC1-ED from Ad-NEU1-infected ECs: MUC1-ED prepared from culture supernates of airway ECs infected with Ad-NEU1 |  | ~65% | 
5 | MUC1-ED from GalNAc-O-bn-treated ECs: MUC1-ED from supernates of airway ECs cultured with the O-glycosylation inhibitor benzyl-N-acetyl-α-galactosaminide |  | 88% | 
6 | MUC1-ED from E. coli transformed with pMUC1: deglycosylated form of MUC1-ED prepared by transformation of Escherichia coli with a MUC1 expression plasmid (pMUC1); SEQ ID NO:2 per b204 |  | 93% | number of Pa recovered from BALF (CFU) [3]: reduced the number of Pa recovered; number of Pa recovered from lungs (CFU) [3]: reduced the number of Pa recovered; survival over seven days [4]: ~45%; maximum inhibition of Pa adhesion ([1]; comparison in the discussion, single repeat vs MUC1-ED containing 15 repeats): > 90%
7 | MUC1-ED: shed MUC1 ectodomain in airway EC culture supernates |  |  | MUC1-ED concentrations capable of inhibiting Pa adhesion in vitro ([1]; shed MUC1-ED in EC culture supernates (FIGS. 9A, 9B)): ≤ 0.63 μg/m1
8 | MUC1-ED from tunicamycin-treated ECs: MUC1-ED from supernates of airway ECs cultured with the N-glycosylation inhibitor tunicamycin |  | did not reduce Pa adhesion | 
9 | CO/N=C(\C(=O)N[C@@H]1C(=O)N2C(C(=O)[O-])=C(C[N+]3(C)CCCC3)CS[C@H]12)c1csc(N)n1 [cefepime, reference compound] |  |  | survival over seven days [4]: ~62.5%
10 | CC(=O)N[C@H]1C(O)O[C@H](CO)[C@@H](O)[C@@H]1O (some centres unmarked) [N-acetylglucosamine, reference compound] | None of these monosaccharides, either separately or in combination, blocked Pa adhesion to ECs |  | 
